# Results reported in PMC13193388, “Dimerization‐dependent NOTCH receptor transactivation unveils a class of highly selective NOTCH signalling inhibitors” (The Febs Journal, 2025).
# “Also recorded” adds a separate entry of the source.
# Experiments:
# NOTCH3-ECD = target: T1, NOTCH3-ECD (Homo sapiens, UniProt Q9UM47); assay: SPR peptide binding to immobilized recombinant NOTCH3-ECD
# T1 construct: we purified the complete (recombinant) N3 ECD from human tissue culture cells; made in house; host or cells: PEC.3.30 (modified Per.E2A human cells), purified from culture supernatant
# T1 sequence (Q9UM47 40-1643 limits assumed): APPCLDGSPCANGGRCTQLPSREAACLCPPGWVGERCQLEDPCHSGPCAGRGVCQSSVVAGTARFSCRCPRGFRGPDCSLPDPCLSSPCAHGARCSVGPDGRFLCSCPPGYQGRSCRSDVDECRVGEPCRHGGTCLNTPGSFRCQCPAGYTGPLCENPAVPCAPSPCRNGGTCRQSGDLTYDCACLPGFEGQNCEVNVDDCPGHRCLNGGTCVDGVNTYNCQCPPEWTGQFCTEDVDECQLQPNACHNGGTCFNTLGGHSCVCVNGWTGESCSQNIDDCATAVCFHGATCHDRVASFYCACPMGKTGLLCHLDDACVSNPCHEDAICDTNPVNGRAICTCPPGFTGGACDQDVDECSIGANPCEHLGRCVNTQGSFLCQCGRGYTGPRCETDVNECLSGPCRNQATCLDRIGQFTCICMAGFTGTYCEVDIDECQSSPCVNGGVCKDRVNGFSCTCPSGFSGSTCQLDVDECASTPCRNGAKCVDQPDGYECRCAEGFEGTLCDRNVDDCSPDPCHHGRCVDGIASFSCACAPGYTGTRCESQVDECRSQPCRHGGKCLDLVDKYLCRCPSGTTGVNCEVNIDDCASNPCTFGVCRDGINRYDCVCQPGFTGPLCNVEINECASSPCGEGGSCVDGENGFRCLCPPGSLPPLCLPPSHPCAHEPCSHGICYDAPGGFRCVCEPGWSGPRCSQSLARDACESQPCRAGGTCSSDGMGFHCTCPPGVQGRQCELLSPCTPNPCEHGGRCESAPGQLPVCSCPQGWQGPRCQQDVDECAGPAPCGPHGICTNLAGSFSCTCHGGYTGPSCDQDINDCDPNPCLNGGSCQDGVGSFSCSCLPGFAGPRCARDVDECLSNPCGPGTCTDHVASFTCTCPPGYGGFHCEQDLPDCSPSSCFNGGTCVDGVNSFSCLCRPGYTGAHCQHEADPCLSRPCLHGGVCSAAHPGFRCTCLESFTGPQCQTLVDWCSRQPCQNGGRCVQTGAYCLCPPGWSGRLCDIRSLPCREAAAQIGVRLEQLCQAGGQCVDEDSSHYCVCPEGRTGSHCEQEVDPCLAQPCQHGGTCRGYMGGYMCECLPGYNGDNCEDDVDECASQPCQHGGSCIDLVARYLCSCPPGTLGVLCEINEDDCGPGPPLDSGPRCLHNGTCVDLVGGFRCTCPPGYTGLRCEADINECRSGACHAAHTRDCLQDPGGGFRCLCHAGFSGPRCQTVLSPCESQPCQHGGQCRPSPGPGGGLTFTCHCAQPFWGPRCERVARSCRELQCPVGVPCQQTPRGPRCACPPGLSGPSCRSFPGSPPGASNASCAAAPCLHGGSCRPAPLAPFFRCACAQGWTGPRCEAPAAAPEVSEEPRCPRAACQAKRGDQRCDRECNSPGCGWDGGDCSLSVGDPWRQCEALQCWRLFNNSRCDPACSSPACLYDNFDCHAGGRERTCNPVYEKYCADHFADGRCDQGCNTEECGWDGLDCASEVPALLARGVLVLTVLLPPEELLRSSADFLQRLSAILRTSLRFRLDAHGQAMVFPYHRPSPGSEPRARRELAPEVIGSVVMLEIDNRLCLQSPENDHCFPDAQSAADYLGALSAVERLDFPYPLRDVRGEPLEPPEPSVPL
# Procedure: (§1) The NOTCH3‐ECD protein was produced using PEC.3.30, which is modified Per.E2A cells. DMEM cell supernatant containing the NOTCH3‐ECD protein was collected for purification. The supernatant was loaded onto a HisTrap high‐performance (HP) column (Cytiva, Uppsala, Sweden) and eluted with a gradient buffer that included 500 mM imidazole, 25 mM HEPES at pH 7.5 and 500 mM NaCl. The pooled fractions were concentrated using a 50 000 molecular weight cut‐off (MWCO) centrifugal filter (Millipore, Merck KGaA, Darmstadt, Germany), resulting in a buffer of 10 mM imidazole, 25 mM HEPES at pH 7.5 and 100 mM NaCl. The concentrated protein solution was subsequently loaded onto a Superdex 200 16/600 gel filtration column (Cytiva, Uppsala, Sweden), which was equilibrated with 25 mM HEPES at pH 7.5 and 100 mM NaCl. Similar yields of purified protein were obtained across all samples. The purified proteins were snap‐frozen in liquid nitrogen immediately after purification and stored at −80 °C.
# Peptide binding to the NOTCH3‐ECD protein using SPR was performed using a Biacore T200. The NOTCH3‐ECD protein was immobilized onto a Biacore NTA Series S Sensor Chip (Cytiva), at a concentration of 0.1 μg·μL^−1 using Nickel‐NTA capture‐coupling, resulting in approximately 3500 RU of immobilized protein. Peptides were introduced using the ‘Eject rack’ function, followed by analysis. […]
# N3 receptor [1] = assay: N3 downstream NOTCH target gene expression (real-time qPCR); assay type: cell-based, human; conditions: 293 T cells with HA-N3, recombinant DLL1, 3 h, n = 3
# Procedure: (§2) Human embryonic kidney (HEK) 293 T cells (RRID:CVCL_0063) were cultured in Dulbecco's Modified Eagle Medium (DMEM) (Gibco, Grand Island, NY, USA) supplemented with 10% fetal bovine serum (FBS) (Gibco). This cell line was obtained from the American Type Culture Collection (ATCC, Manassas, VA, USA). T‐ALL cell lines (kindly provided by Professor Jan Cools – VIB, Leuven): MOLT4 (RRID:CVCL_0013), ALL SIL (RRID:CVCL_1805), DND‐41 (RRID:CVCL_2022), HPB‐ALL (RRID:CVCL_1820), SUP‐T1 (RRID:CVCL_1714) and JURKAT (RRID:CVCL_0065), were cultured in Roswell Park Memorial Institute (RPMI) 1640 medium (Gibco) supplemented with 10% FBS (Gibco). Cells were maintained in a 5% CO2, 37 °C humidified incubator, tested monthly for mycoplasma contamination using a MycoAlert kit (Lonza, Walkersville, MD, USA), and checked for authenticity, in the last 3 years, by an in‐house service using short tandem repeat (STR) profiling. Transfections, lentivirus production and cell infections, western blotting and co‐immunoprecipitations have been described previously. […] RNA isolation, first‐strand cDNA synthesis and analysis of expression of transcripts by quantitative (q) PCR were performed as described previously. […] Expression of these proteins was determined using antibodies directed against either the coding region of the protein or the epitope tag. […]
# N3 ECD homodimer = assay: Nondenaturing gel: disruption of purified N3 ECD homodimer; assay type: biochemical, human; conditions: nondenaturing acrylamide gel, purified HIS-tagged N3 ECD; n = 3
# Procedure: as §1
# N3 receptor [2] = assay: N3 transactivation luciferase reporter assay; assay type: cell-based, human
# Procedure: (§3) Reporter assays were performed as previously described. Briefly, stable cell lines expressing epitope‐tagged ligands and receptors were established via infection of cells with lentiviruses harbouring the appropriate ligand/receptor cDNA followed by selection with the encoded antibiotic (puromycin or neomycin). For transactivation assays, cells co‐expressing receptor and reporter were cocultured with cells stably expressing ligand alone (to enable transactivation). […] For each experiment, cells were seeded in triplicate in 12‐well plates. The NOTCH luciferase reporter harboured 10× Recombination Signal Binding Protein for Immunoglobulin kappa J (RBPJ) consensus DNA‐binding sites, and was cotransfected with thymidine kinase promoter‐driven Renilla luciferase control plasmid. Additionally, transfection efficiencies (routinely > 90%) were determined through visualization of cotransfected plasmid encoding the Tomato fluorescence reporter. Cells were lysed 36 h postplating, and luciferase activity was measured using a luciferase assay substrate (Promega). Luciferase activity was normalized by measuring Renilla luciferase activity (Promega). Where indicated, assays were performed in the presence or absence of 10 μM DAPT (Sigma‐Aldrich, St. Louis, MO, USA). Receptor and ligand protein levels were determined by western blotting. Experiments were performed three times. […]
# NOTCH receptors = assay: Endogenous HEY expression in 293 T cells expressing NOTCH receptors (real-time qPCR); assay type: cell-based, human; conditions: 3 h, DAPT 20 μM, n = 3 (Fig. 4F)
# Procedure: as §2
# N2 receptor [3] = assay: N2 transactivation luciferase reporter assay; assay type: cell-based, human; conditions: Fig. 4A,E, n = 3
# Procedure: as §3
# N2 receptor [4] = assay: N2 receptor dimerization (immobilized HIS-N2 with HA-N2, western blot); assay type: biochemical, human; conditions: HIS-N2 on nickel beads with HA-N2, western blot; n = 3
# Procedure: as §2, with “(Gibco).” for “(Gibco). Cells were maintained in a 5% CO2, 37 °C humidified incubator, tested monthly for mycoplasma contamination using a MycoAlert kit (Lonza, Walkersville, MD, USA), and checked for authenticity, in the last 3 years, by an in‐house service using short tandem repeat (STR) profiling. Transfections, lentivirus production and cell infections, western blotting and co‐immunoprecipitations have been described previously.”
# (§4) Domains for recombinant protein production were cloned into the pET 28a vector in‐frame to an N‐terminal HIS6 epitope. […] Protein yields were determined by Bradford assay (Bio‐Rad, Hercules, CA, USA), and relative protein integrity and purity were determined by SDS/PAGE and Colloidal Blue staining (Invitrogen, Carlsbad, CA, USA). […] Proteins were separated by SDS/PAGE and associated proteins were detected by western blotting.
# N2 receptor [5] = assay: Cell surface ligand-N2 receptor binding assay; assay type: cell-based, human; conditions: Fig. 4D; n = 3
# Procedure: (§5) Confluent 10‐cm dishes of 293 T cells stably expressing HA epitope‐tagged NOTCH receptors were washed with ice‐cold phosphate buffered saline (PBS)/bovine serum albumen (BSA) (1 mg·mL^−1). Cells were stimulated with 50 μL of ligand (0.5 mg·mL^−1) in the presence of 1.5 mL of PBS/BSA (1 mg·mL^−1) for 1 h, with gentle shaking, at 4 °C. Cells were washed once with PBS. Cells were incubated with crosslinkers in the presence of 2 mL of ice‐cold PBS for 15 min, with gentle shaking at 4 °C: 0.27 μM disuccinimidyl suberate (DSS) (Pierce, Rockford, IL, USA) and 0.07 μM bis‐sulfosuccinimidyl suberate (BS3) (Pierce). Cells were washed once with ice‐cold detachment buffer (10 mM Tris–HCl pH 7.4, 1 mM EDTA pH 7.4, 10% glycerol), scraped off the plates in 1 mL of detachment buffer and transferred to Eppendorf tubes. Cell pellets were lysed in 1 mL of solubilization buffer (125 mM NaCl, 10 mM Tris–HCl pH 7.4, 1 mM EDTA pH 7.4, 1% Triton X‐100) on ice for 30 min and centrifuged at 13000 r.p.m. for 10 min. Supernatants were incubated with HA antibody (Covance, Princeton, NJ, USA) overnight at 4 °C. 50 μL of washed (4×) protein A/G beads (50% solution) was added, and samples were incubated for 45 min at 4 °C. The beads were washed four times with solubilization buffer. 50 μL of sample buffer was added and samples were boiled for 5–10 min prior to gel electrophoresis. […]
# N2 receptor [6] = assay: Ligand-dependent N2 receptor cleavage (western blot); assay type: cell-based, human; conditions: 293 T cells with HA-N2, recombinant DLL1; n = 3
# Procedure: as §2
# N3 receptor [7] = assay: N3 receptor dimerization (immobilized HIS-N3 with HA-N3, western blot); assay type: biochemical, human; conditions: peptides 10 μM unless otherwise stated, n = 3
# Procedure: as §2, with “(Gibco).” for “(Gibco). Cells were maintained in a 5% CO2, 37 °C humidified incubator, tested monthly for mycoplasma contamination using a MycoAlert kit (Lonza, Walkersville, MD, USA), and checked for authenticity, in the last 3 years, by an in‐house service using short tandem repeat (STR) profiling. Transfections, lentivirus production and cell infections, western blotting and co‐immunoprecipitations have been described previously.”
# as §4
# N3 receptor [8] = assay: Cell surface ligand-N3 receptor binding assay; assay type: cell-based, human; conditions: 293 T cells stably expressing HA-tagged N3, crosslinked, western blot; n = 3
# Procedure: as §5
# N3 receptor [9] = assay: Ligand-dependent N3 receptor cleavage (western blot); assay type: cell-based, human; conditions: 293 T cells, recombinant DLL1, peptides 10 μM unless otherwise stated
# Procedure: as §2
binding to N3 ECD (NOTCH3-ECD; control peptide with motif core mutated to glycine),inhibition of downstream NOTCH target genes (N3) (N3 receptor [1]),K D (range in words) (NOTCH3-ECD; pure recombinant N3 ECD purified from human cells),effect on N2 receptor transactivation / downstream gene activation (N2 receptor [3]),Sequence,disruption of N3 ECD homodimer (N3 ECD homodimer),selectivity for N3 over N2 and N1 (N3 receptor [2]; Fig. 4E),"inhibition of N3 transactivation (NOTCH reporter) (N3 receptor [2]; coculture with ligand cells, lysed 36 h postplating, peptides 10 μM unless otherwise stated, n = 3)",suppression of NOTCH-driven gene expression compared to DAPT (NOTCH receptors),effect on N2 receptor dimerization (N2 receptor [4]),effect on stable N2 receptor-ligand binding at the cell surface (N2 receptor [5]),effect on N2 receptor cleavage (N2 receptor [6]),inhibition of N3 receptor dimerization (N3 receptor [7]),block of stable ligand-receptor binding at the cell surface (N3) (N3 receptor [8]),inhibition of ligand-dependent N3 receptor cleavage (N3 receptor [9])
failed to bind efficiently to the N3 ECD,,,,"EKYGGGHFADGR [control peptide, control peptide (…), core of the dimerization motif mutated (to glycine), reference compound]",,,,,,,,,,
,robustly inhibit,low nM range,little detectable effect,"EKYCADHFADGR [N34, N3 peptide (…) centred on the helix encompassing the core dimerization motif]",disrupted,exquisite selectivity for N3 (and not N2 or N1,robustly inhibit; also recorded: inhibited N3 receptor activity,"as efficiently as the generic gamma secretase inhibitor (GSI), DAPT",little detectable effect,little detectable effect,little detectable effect,robustly inhibit,efficiently blocked,robustly inhibit
